Assay results taken from US5344843A, “Cat-1 inhibitors, pharmaceutical compositions and methods of use” (Hoffman-La Roche Inc., priority 1992, dated 1994).
Counter-ions that a name gives are not always drawn.

What was measured:
[1] = target: T1, CAT-1 (carnitine acyltransferase 1) (Rattus norvegicus, UniProt Q63704); assay: Primary Screen--Inhibition of CAT-1 in isolated mitochondria; type: biochemical
T1 construct: This preparation is used as the isolated mitochondrial preparation; from tissue; host or cells: rat heart (atria removed), isolated mitochondria
T1 sequence (Q63704 1-772): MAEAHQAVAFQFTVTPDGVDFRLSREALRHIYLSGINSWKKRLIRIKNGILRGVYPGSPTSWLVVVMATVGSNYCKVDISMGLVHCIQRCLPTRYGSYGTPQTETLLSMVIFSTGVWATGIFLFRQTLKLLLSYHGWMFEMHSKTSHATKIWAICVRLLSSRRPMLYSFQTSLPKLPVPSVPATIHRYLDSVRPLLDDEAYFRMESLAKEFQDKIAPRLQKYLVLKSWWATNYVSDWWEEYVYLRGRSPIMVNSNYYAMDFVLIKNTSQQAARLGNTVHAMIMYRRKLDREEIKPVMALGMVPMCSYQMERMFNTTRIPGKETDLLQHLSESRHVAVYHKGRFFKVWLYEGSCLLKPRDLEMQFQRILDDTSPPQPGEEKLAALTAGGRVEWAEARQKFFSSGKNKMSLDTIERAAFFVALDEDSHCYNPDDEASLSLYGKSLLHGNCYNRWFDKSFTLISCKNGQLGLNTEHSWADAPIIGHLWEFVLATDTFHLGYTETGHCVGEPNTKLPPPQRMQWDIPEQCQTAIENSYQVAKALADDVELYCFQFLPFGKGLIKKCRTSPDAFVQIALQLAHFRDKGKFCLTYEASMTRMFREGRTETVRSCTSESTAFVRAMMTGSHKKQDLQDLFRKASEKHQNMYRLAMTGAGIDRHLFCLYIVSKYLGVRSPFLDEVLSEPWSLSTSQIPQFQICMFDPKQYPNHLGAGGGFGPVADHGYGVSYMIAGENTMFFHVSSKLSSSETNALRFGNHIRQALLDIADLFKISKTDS

[2] = target: T1, CAT-1 (carnitine acyltransferase 1); assay: Secondary Screen--Inhibition of CAT-1 in intact cardiac myocytes (hypoxia-induced increase in long-chain acylcarnitines); type: cell-based; design: inhibition: dose or concentration left out as unconfirmed; settings: isolated rat cardiac myocytes; for IC50: 50% inhibition of hypoxia-induced increase in long-chain acylcarnitines
Method: Secondary Screen--Inhibition of CAT-1 in intact Cardiac Myocytes
(a) Preparation of Isolated Rat Cardiac Myocytes
Four hearts are excised from anesthetized rats and perfused retrogradly via the Langendorf technique. Each heart receives 100 mL of Krebs (NaCl, 118.4 mM; KCL, 4.6 mM; NaH2 PO4, 1.0 mM; NaHCO3, 20 mM; MgSO4, 2 mM; CaCl2, 50 μM; glucose, 11.0 mM), 100 mL of Ca++ free Krebs and finally 100 mL of 0.5% collagenase (Boehringer Mannhelm, type 1) in Hepes (NaCl, 115 mM; KCl, 5 mM; sucrose, 35 mM; glucose, 10 mM; Hepes, 10 mM; taurine, 4 mM; MgSO4, 2 mM; CaCl2, 50 μM). After these perfusions, the hearts are chopped into pieces, approx. 0.5 cm×0.5 cm and placed in four 125 mL plastic bottles along with 25 mL of collagenase/Hepes situated in a water bath maintained at 35° C. The pieces of cardiac tissue in each bottle are agitated by using a Harvard respirator connected to four glass syringes, which sucks the tissue up and down each tube during each respiratory cycle. After fifteen minutes, the collagenase/Hepes is removed and replaced with fresh collegenase/Hepes and the process repeated. The collegenase/Hepes from the subsequent fifteen minute harvests are centrifuged at 500 g to pellet the cells which are then resuspended in Hepes buffer. After six harvests, all cells are pelleted, resuspended in 2×26.5 mL of Hepes plus BSA (350 mg) and layered on top of 2×percoll gradients (21.15 mL percoll, 2.35 mL NaCl, 6 drops acetic acid). This is centfifuged at 3000 g for eight minutes forming a percoll gradient which results in viable cells being separated from damaged cells. The viable cells are removed, washed with Hepes and finally resuspended in 25 mL of Hepes.
The isolated cardiac myocytes (2 mL; approximately 1×10^6 cells) are separated into six glass pods. Into four of these are placed selected concentrations of the compound to be tested, and the cells are incubated for twenty minutes, after which the pods are centrifuged at 300 g for three minutes. 300 μL of normoxic Hepes is placed in one of the pods not containing compound and then all pods are placed in a hypoxic chamber (N2 atmosphere). Oxygen is fed via small bore steel tubes to the pod containing the normoxic buffer, while the other five pods receive pre-purified argon (99.998% pure). After two minutes, Hepes (pre-gassed with argon for at least twelve hours) is fed into the five hypoxic pods. This hypoxic environment (pO2 <10 mm Hg) is maintained for twenty minutes, after which the cells and pods are frozen by contact with a metal block precooled in liquid N2. The pods are then removed from the chamber and stored at -70° C. The carnitine assay is performed, as described below in (c), to determine the amount of long-chain acylcarnitine in the cells from the normoxic, hypoxic and hypoxic plus compound samples. […] Thus the IC50 in this screen is the concentration of test compound which produces a 50% inhibition of the hypoxia-induced increase in long-chain acylcarnitines.
(c) Long-chain Acylcarnitine Assay.
The frozen cell samples are thawed, mixed and homogenized with 40 μL of 70% PCA. The homogenate is transferred to eppendorf tubes while the homogenization tube and the glass pod is rinsed with 500 μL of 7% PCA, with the rinse being added to the eppendorf tube. This is then centrifuged at 1000 g for two minutes to pellet the precipitate (containing the long-chain acylcarnitine) and the supernatant is discarded. The pellet is washed twice with 500 μL of 7% PCA, the supernatants being discarded. The pellet is then hydrolyzed (to separate the acyl unit from carnitine to yield free carnitine) by the addition of 200 μL of aleionized H2 O and 50 μL of 5N KOH and incubated at 70° C. for ninety minutes.

[3] = rat heart mitochondria, reduction of palmitoyl carnitine formation by 50%, read-out: Primary Screen IC50

Row | SMILES | IC50 [1, 3] [µM] | IC50 [2] [µM] | inhibition ([2]; hypoxia) [%] | inhibition at 25 µM ([2]; @ 25 μM, hypoxia) [%] | IC50 [1] [µM]
1 | CN(O)C(=O)C(=O)c1ccc(OCCOc2ccc3ccccc3c2)cc1 [Example 299, N-hydroxy-N-methyl-4-[2-(2-naphthalenyloxy)ethoxy]-alpha-oxobenzeneacetamide] | 1.9 | 8 |  |  | 
2 | O=C(O)C(=O)c1ccc(C(=O)NCCOc2ccc3ccccc3c2)cc1 [Example 177, 4-[[[2-(2-naphthalenyloxy)ethyl]amino]carbonyl]-alpha-oxobenzeneacetic acid] | 0.4 | 25 |  |  | 
3 | O=C(O)C(=O)c1ccc(OC/C=C/c2ccc3ccccc3c2)cc1 [Example 96, (E)-4-[[3-(2-naphthalenyl)-2-propenyl]oxy]-alpha-oxobenzeneacetic acid] | 0.065 | 7 |  |  | 
4 | O=C(O)C(=O)c1ccc(SCCOC2CCCCCCC2)cc1 [Example 173, 4-[[2-(cyclooctyloxy)ethyl]thio]-alpha-oxobenzeneacetic acid] | 0.8 | 0.3 |  |  | 
5 | O=C(O)C(=O)c1ccc(OCCCC(=O)c2ccc3ccccc3c2)cc1 [Example 282, 4-[[4-(2-naphthalenyl)-4-oxobutyl]oxy]-alpha-oxobenzeneacetic acid] | 0.4 | 8 |  |  | 
6 | O=C(NO)C(=O)c1ccc(OCCOc2ccc3ccccc3c2)s1 [Example 300, N-hydroxy-5-[2-(2-naphthalenyloxy)ethoxy]-alpha-oxo-2-thiopheneacetamide] | 2.1 | 5 |  |  | 
7 | O=C(OCC(O)CO)C(=O)c1ccc(OCCOc2ccc3ccccc3c2)s1 (racemic) [Example 5, rac.-5-[[2-(2-naphthalenyloxy)ethyl]oxy]-alpha-oxo-2-thiopheneacetic acid 2,3-dihydroxypropyl ester] | 0.04 | 0.25 |  |  | 
8 | O=C(O)/C(=N/O)c1ccc(OCCOc2ccc3ccccc3c2)s1 [Example 302, (Z)-alpha-(hydroxyimino)-5-[2-(2-naphthalenyloxy)ethoxy]-2-thiopheneaceticacid] | 0.24 | 0.9 |  |  | 
9 | O=C(O)C(=O)c1ccc(OCCOc2ccccc2)cc1 [Example 37, alpha-oxo-4-[[2-(phenoxy)ethyl]oxy]benzeneacetic acid] | 2 | 37 |  |  | 
10 | O=C(O)C(=O)c1ccc(OCCCCCCc2cccc(O)c2O)cc1 [Example 260, 4-[6-(2,3-dihydroxyphenyl)hexyloxy]-alpha-oxobenzeneacetic acid] | 4 |  | 94 |  | 
11 | O=C(OCCOCCOCCO)C(=O)c1ccc(OCCOc2ccc3ccccc3c2)cc1 [Example 105, 4-[[2-(2-naphthalenyloxy)ethyl]oxy]-alpha-oxobenzeneacetic acid 2-[2-(2-hydroxyethoxy)ethoxy]ethyl ester] | 0.04 | 75 |  |  | 
12 | CO/N=C(/C(=O)O)c1ccc(OCCOc2ccc3ccccc3c2)s1 [Example 306, (Z)-alpha-(methoxyimino)-5-[2-(2-naphthalenyloxy)ethoxy]-2-thiopheneaceticacid (2:1) hydrate] | 0.3 | 7 |  |  | 
13 | Cc1cc(C(=O)C(=O)O)ccc1OCCOc1ccc2ccccc2c1 [Example 181, 3-methyl-4-[2-(2-naphthalenyloxy)ethoxy]-alpha-oxobenzeneacetic acid] | 0.4 | 7.5 |  |  | 
14 | O=C(O)C(=O)c1ccc(OCCOc2cccc3ccccc23)cc1 [Example 84, 4-[[2-(1-naphthalenyloxy)ethyl]oxy]-alpha-oxobenzeneacetic acid] | 0.08 | 4 |  |  | 
15 | C[N+](C)(C)CCOC(=O)C(=O)c1ccc(OCCOc2ccc3ccccc3c2)s1 [Example 7, 2-[[5-[[2-(2-naphthalenyloxy)ethyl]oxy]-alpha-oxo-2-thiopheneacetyl]oxy]-N,N,N-trimethylethanaminium iodide] | 0.03 | 0.1 |  |  | 
16 | O=C(O)C(=O)c1ccc(OCCOC2CCCCC2)cc1 [Example 99, 4-[[2-(cyclohexyloxy)ethyl]oxy]-alpha-oxobenzeneacetic acid] | 0.9 | 20 |  |  | 
17 | O=C(O)C(=O)c1ccc(CCCOc2ccc3ccccc3c2)cc1 [Example 143, 4-[3-(2-naphthalenyloxy)propyl]-alpha-oxobenzeneacetic acid] | 2.7 | 12 |  |  | 

Row | SMILES | IC50 [1, 3] [µM] | IC50 [2] [µM] | inhibition ([2]; hypoxia) [%] | inhibition at 25 µM ([2]; @ 25 μM, hypoxia) [%] | IC50 [1] [µM]
18 | CCC(C)(C)C(=O)OCc1cccc(C)c1OCCSc1ccc(C(=O)C(=O)O)cc1 [Example 175, 4-[[2-[2-[(2,2-dimethyl-1-oxobutoxy)methyl]-6-methylphenoxy]ethyl]thio]-alpha-oxobenzeneacetic acid] | 0.5 | 0.2 |  |  | 
19 | O=C(OCC(O)CO)C(=O)c1ccc(OCCOc2ccc3ccccc3c2)cc1 (racemic) [Example 104, rac.-4-[[2-(2-naphthalenyloxy)ethyl]oxy]-alpha-oxobenzeneacetic acid 2,3-dihydroxypropyl ester] | 0.04 | 1.2 |  |  | 
20 | O=C(O)C(=O)c1ccc(OCCOc2ccc3ccccc3c2)cc1 [Example 86, 4-[[2-(2-naphthalenyloxy)ethyl]oxy]-alpha-oxobenzeneacetic acid] | 0.08 | 3 |  |  | 
21 | CCC(C)(C)C(=O)Oc1cccc2ccc(OCCOc3ccc(C(=O)C(=O)O)cc3)cc12 [Example 134, 4-[[2-[8-(2,2-dimethyl-1-oxobutoxy)-2-naphthalenyloxy]ethyl]oxy]-alpha-oxobenzeneacetic acid] | 0.6 | 0.4 |  |  | 
22 | O=C(COc1ccc(C(=O)C(=O)O)cc1)NC1CCCCCCC1 [Example 247, 4-[2-(cyclooctylamino)-2-oxoethoxy]-alpha-oxobenzeneacetic acid] | 0.4 | 30 |  |  | 
23 | O=C(O)C(=O)c1c(F)c(F)c(OCCOc2ccc3ccccc3c2)c(F)c1F [Example 205, 2,3,5,6-tetrafluoro-4-[2-(2-naphthalenyloxy)ethoxy]-alpha-oxobenzeneaceticacid] | 7.2 |  |  | 35 | 
24 | N[C@H](C(=O)O)c1ccc(OCCOC2CCCCCCC2)cc1 [Example 18, (S)-alpha-amino-4-[[2-(cyclooctyloxy)ethyl]oxy]benzeneaceticacid hydrochloride] | 37.4 | 5 |  |  | 
25 | CC(C)c1cccc(-c2ccc(F)cc2)c1OCCOc1ccc(C(=O)C(=O)O)cc1 [Example 234, 4-[2-[4'-fluoro-3-(1-methylethyl)[1,1'-biphenyl]-2-yloxy]ethoxy]-alpha-oxobenzeneacetic acid] |  |  | 90 |  | 
26 | O=C(O)C(=O)c1ccc(OCCOc2ccc3ccccc3c2)c([N+](=O)[O-])c1 [Example 179, 4-[2-(2-naphthalenyloxy)ethoxy]-3-nitro-alpha-oxobenzeneacetic acid] | 0.2 | 8 |  |  | 
27 | CCC(C)(C)C(=O)OCc1cccc(C)c1OCCOc1ccc([C@H](N)C(=O)O)cc1 [Example 298, (S)-alpha-amino-4-[2-[2-[(2,2-dimethyl-1-oxobutoxy)methyl]-6-methylphenoxy]ethoxy]benzeneacetic acid] | 2.5 | 30 |  |  | 
28 | CC(C)c1nc(-c2ccccc2)n(-c2ccc(F)cc2)c1/C=C/COc1ccc(C(=O)C(=O)O)cc1 [Example 243, (E)-4-[3-[1-(4-fluorophenyl)-4-(1-methylethyl)-2-phenyl-1H-imidazol-5-yl]-2-propenyloxy]-alpha-oxobenzeneacetic acid] |  | 7 |  |  | 
29 | CC(C)n1c(/C=C/COc2ccc(C(=O)C(=O)O)cc2)c(-c2ccc(F)cc2)c2ccccc21 [Example 241, (E)-4-[3-[3-(4-fluorophenyl)-1-(1-methylethyl)-1H-indole-2-yl]-2-propenyloxy]-alpha-oxobenzeneacetic acid (1:1) morpholine salt] |  | 12 |  |  | 
30 | Cc1cc(C)c(C(=O)COc2ccc(C(=O)C(=O)O)cc2)c(C)c1 [Example 292, 4-[2-oxo-2-(2,4,6-trimethylphenyl]ethoxy]-alpha-oxobenzeneacetic acid] | 4.5 |  |  |  | 
31 | O=C(O)C(=O)c1ccc(OCC(=O)N2CCN(CCc3ccccc3C(F)(F)F)CC2)cc1 [Example 253, alpha-oxo-4-[2-oxo-2-[4-[2-[2-(trifluoromethyl)phenyl]ethyl]-1-piperazinyl]ethoxy]benzeneacetic acid (1:1) hydrochloride] |  |  |  |  | 0.5
32 | O=C(O)C(=O)c1ccc(OCc2cc3ccccc3o2)cc1 [Example 141, 4-[[2-benzofuranyl)methoxy]-alpha-oxobenzeneacetic acid] | 0.7 |  |  |  | 
33 | O=C(O)C(=O)c1ccc(OCCCCCCc2cccc(OCc3ccccc3)c2OCc2ccccc2)cc1 [Example 259, 4-[6-[2,3-bis-(phenylmethoxy)phenyl]hexyloxy]-alpha-oxobenzeneacetic acid] | 1.2 |  |  |  | 
34 | O=C(O)C(=O)c1ccc(OCCCCCCOc2ccccc2)cc1 [Example 75, alpha-oxo-4-[[(6-phenoxy)hexyl]oxy]benzeneacetic acid] | 10 |  |  |  | 
